Measurements taken from US6596720B1, “Anti-HIV compositions” (priority 1999, dated 2003).

Legend:
[1] = system: HIV GUN-1 strain; assay: Antiviral activity against HIV GUN-1 strain in MT-4 cells (fluorescent antibody assay); format: cell-based; conditions: HIV GUN-1, MT-4 cells, MOI 0.05, 2 days
Method: (§1) Antiviral activity against HIV GUN-1 strain (Jpn. J. Cancer Res., vol. 78, 11-15(1987)) and HIV IIIB strain (Science, vol. 224, 497-500(1984)) in MT-2 cells and MT-4 cells (Nature, vol. 294, 770-771 (1981))
(§2) MT-2 cells and MT-4 cells were transferred to RPMI 1640 medium (supplemented with 10% fetal calf serum (FCS)) at 2×10^5 cells/ml. […] The cells were cultured at 37° C. One hour later, the cells were infected with HIV at multiplicity of infection of 0.05 (MOI=0.05) and cultured at 37° C. for 2 days. Smears of MT-2 cells and MT-4 cells were prepared and assayed for HIV-positive cells by fluorescent antibody assay (Science, vol. 229, 563(1985)). 3′-Azide-3′-deoxythymidine (hereinafter abbreviated as AZT) was used as a positive control.
(§3) The relative infection rate (%), expressed as a percentage, was calculated from the number of HIV-infected cells in the drug-treated group relative to the number of infected cells in the drug-free solution-treated group as a control group by the following equation:
(§4) Relative infection rate (%)=(N1/N2)×100
(§5) in which N1 is the number of HIV-positive cells in the test drug-treated group, and N2 is the number of HIV-positive cells in the control group.

[2] = system: MT-2 cells; assay: Cytotoxicity against MT-2 cells (trypan blue exclusion); format: cell-based; conditions: 2 days, relative to control group
Method: (§6) Cytotoxicity Against MT-2 Cells and MT-4 Cells
(§7) MT-2 cells and MT-4 cells were transferred to RPMI 1640 medium (supplemented with 10% FCS) at 2×10^5 cells/ml. […] The cells were cultured at 37° C. Two days later, the trypan blue exclusion test was carried out and the number of living cells in each group was counted.
(§8) Relative survival rate (%), expressed as a percentage, was calculated from the number of living cells in the test drug-treated group relative to the number of living cells in the drug-free solution-treated group as a control group, by the following equation:
(§9) Relative survival rate (%)=(N3/N4)×100
(§10) in which N3 is the number of living cells in the test drug-treated group, and N4 is the number of living cells in the control group.

[3] = system: HIV GUN-1 strain; assay: Antiviral activity against HIV GUN-1 strain in MT-2 cells (fluorescent antibody assay); format: cell-based; conditions: HIV GUN-1, MT-2 cells, MOI 0.05, 2 days
Method: as §1, §2, §3, §4, §5

[4] = system: HIV IIIB strain; assay: Antiviral activity against HIV IIIB strain in MT-2 cells (fluorescent antibody assay); format: cell-based; conditions: MOI 0.05, 2 days
Method: as §1, §2, §3, §4, §5

[5] = system: MT-4 cells; assay: Cytotoxicity against MT-4 cells (trypan blue exclusion); format: cell-based; conditions: 2 days, relative to control group
Method: as §6, §7, §8, §9, §10

[6] = system: HIV IIIB strain; assay: Antiviral activity against HIV IIIB strain in MT-4 cells (fluorescent antibody assay); format: cell-based; conditions: MOI 0.05, 2 days
Method: as §1, §2, §3, §4, §5

[7] = system: beagle dogs
[8] = system: HIV GUN-1 strain; assay: Antiviral activity against HIV GUN-1 strain in C8166 cells (syncytia count); format: cell-based; conditions: HIV GUN-1, C8166 cells, MOI 0.25, 2 days
Method: Antiviral Activity Against HIV GUN-1 Strain in C8166 Cells (Salahuddinn et al., Virology, vol. 129, 51-64(1983))
C8166 cells were transferred to RPMI 1640 medium (supplemented with 10% FCS) at 2×10^5 cells/ml. […] The cells were cultured at 37° C. One hour later, the cells were infected with HIV at multiplicity of infection (MOI) of 0.25 (MOI=0.25) and cultured at 37° C. for 2 days. Then the number of syncytia induced by HIV infection was determined.
Relative infection rate (%), expressed as a percentage, was calculated from the number of HIV-infected cells in the test drug-treated group relative to the number of HIV-infected cells in the drug-free solution-treated group as a control group, by the following equation:
Relative infection rate (%)=(N5/N6)×100
in which N5 is the number of syncytia in the test drug-treated group, and N6 is the number of syncytia in the control group.

[9] = system: SD rats

## Cc1cn([C@H]2C[C@H](N=[N+]=[N-])[C@@H](CO)O2)c(=O)[nH]c1=O [AZT, 3′-Azide-3′-deoxythymidine]
[1]; drug 0.001 μg/ml
  Relative infection rate (%): 100%
[1]; drug 0.01 μg/ml
  Relative infection rate (%): 40%
[1]; drug 0.1 μg/ml
  Relative infection rate (%): 4%
[1]; drug 1 μg/ml
  Relative infection rate (%): 0%
[1]; drug 10 μg/ml
  Relative infection rate (%): 0%
[1]; drug 100 μg/ml
  Relative infection rate (%): 0%
[1]; drug 1000 μg/ml
  Relative infection rate (%): 0%
[2]; drug 10 μg/ml
  Relative survival rate (%): 100%
[2]; drug 100 μg/ml
  Relative survival rate (%): 100%
[2]; drug 1000 μg/ml
  Relative survival rate (%): 100%
[3]; drug 0.001 μg/ml
  Relative infection rate (%): 100%
[3]; drug 0.01 μg/ml
  Relative infection rate (%): 30%
[3]; drug 0.1 μg/ml
  Relative infection rate (%): 10%
[3]; drug 1 μg/ml
  Relative infection rate (%): 0%
[3]; drug 10 μg/ml
  Relative infection rate (%): 0%
[3]; drug 100 μg/ml
  Relative infection rate (%): 0%
[3]; drug 1000 μg/ml
  Relative infection rate (%): 0%
[4]; drug 0.001 μg/ml
  Relative infection rate (%): 100%
[4]; drug 0.01 μg/ml
  Relative infection rate (%): 20%
[4]; drug 0.1 μg/ml
  Relative infection rate (%): 10%
[4]; drug 1 μg/ml
  Relative infection rate (%): 0%
[4]; drug 10 μg/ml
  Relative infection rate (%): 0%
[4]; drug 100 μg/ml
  Relative infection rate (%): 0%
[4]; drug 1000 μg/ml
  Relative infection rate (%): 0%
[5]; drug 10 μg/ml
  Relative survival rate (%): 100%
[5]; drug 100 μg/ml
  Relative survival rate (%): 100%
[5]; drug 1000 μg/ml
  Relative survival rate (%): 84%
[6]; drug 0.001 μg/ml
  Relative infection rate (%): 100%
[6]; drug 0.01 μg/ml
  Relative infection rate (%): 25%
[6]; drug 0.1 μg/ml
  Relative infection rate (%): 5%
[6]; drug 1 μg/ml
  Relative infection rate (%): 0%
[6]; drug 10 μg/ml
  Relative infection rate (%): 0%
[6]; drug 100 μg/ml
  Relative infection rate (%): 0%
[6]; drug 1000 μg/ml
  Relative infection rate (%): 0%

## O=c1[nH]c(=O)n([C@H]2C[C@H](O)[C@@H](CO)O2)cc1C(F)(F)F [FTD, trifluridine]
[7]; male beagle dogs, oral, repeated for 14 days, combination molar ratio FTD/compound 1=1/0.5
  Maximum tolerated dose (causing no death, expressed as FTD dose): 6 mg/kg
[8]; FTD 0.01 μg/ml
  Infection rate (%): 90%
[8]; FTD 0.1 μg/ml
  Infection rate (%): 59%
[8]; FTD 1 μg/ml
  Infection rate (%): 2%
[8]; FTD 10 μg/ml
  Infection rate (%): 0%
[8]; FTD 100 μg/ml
  Infection rate (%): 0%
[8]; FTD 1000 μg/ml
  Infection rate (%): 0%
[9]; male SD rats, oral, repeated for 14 days, combination molar ratio FTD/compound 1=1/0.5
  Maximum tolerated dose (causing no death, expressed as FTD dose): 150 mg/kg

## Cl.N=C1CCCN1Cc1[nH]c(=O)[nH]c(=O)c1Cl [Compound 1, 5-Chloro-6-(2-iminopyrrolidin-1-yl)methyl-2,4(1H,3H)-pyrimidinedione Hydrochloride]
[7]; beagle dogs, FTD + compound 1 versus FTD alone
  Change of the maximum tolerated dose of FTD by compound 1: approximately tripled
[9]; SD rats, FTD + compound 1 versus FTD alone
  Change of the maximum tolerated dose of FTD by compound 1: approximately tripled
